# Entries after “also recorded” stand apart in the source; their conditions may differ. Read-outs that look alike come from different tables or passages of the source.
# What was measured:
# [1] = Platinum distribution study in vivo by ICP-MS; design: species or system CT-26 tumor-bearing BALB/c mice; settings: i.v., 24 h after second dose
# Description: (§1) Tumor size was determined daily via manual caliper measurement. […] Animals were euthanized via cervical dislocation.
# The generation and treatment of tumor-bearing mice are outlined in the section “In vivo syngraft experiments” described above. Mouse tissues were processed as described previously.[13] Briefly, serum was isolated from peripheral blood by centrifugation (900g, 10 min, 4 °C, twice). Tissues were digested in 20% nitric acid and hydrogen peroxide using an open-vessel graphite digestion system. The platinum concentration was determined by ICP-MS analysis; for details see “Intracellular platinum accumulation in vitro by ICP-MS”.
# [2] = Hematological analysis 24 h after the second dose; settings: two i.v. doses equimolar to 9 mg kg^−1 oxaliplatin, 24 h after second dose
# Description: (§2) Mice were kept in groups of four per cage with sterilized paper-based environmental enrichment and food and water ad libitum, under pathogen-free conditions and a controlled environment with a 12 h light–dark cycle. Syngeneic models of colorectal carcinoma were generated via subcutaneous injection of CT-26 cells (0.5 × 10^6 cells in 50 μL of serum-free RPMI-1640 medium) into the right flank of 8–12 weeks old BALB/c mice. […] All animals were euthanized 24 h after the second dose. […] To determine the anticancer efficacy of the investigated compounds, treatment started 4 d after tumor implantation, when all tumors were measurable (>25 mm^3) using a twice-weekly treatment scheme for two weeks. Tumor size was determined daily via manual caliper measurement. The tumor volume was calculated as tumor volume = (length × diameter × diameter)/2. The overall condition, shape, and activity of the animals were assessed daily. Peripheral blood was collected from the submandibular vein in K3E K3EDTA tubes (Greiner Bio-One; Kremsmünster, AUT) on ice and was analyzed for hematological parameters (red blood cells (RBCs), hemoglobin (HGB), hematocrit (HCT), red cell distribution width (RDW), mean corpuscular volume (MCV), white blood cells (WBCs), lymphocytes (LYM), monocytes (MO), granulocytes (GRA), and platelets (PLT) using a Vet ABC hematology analyzer (scil Animal Care GmbH, Viernheim, Germany). EDTA-blood was centrifuged (900g, 10 min) twice and the supernatant (EDTA-plasma) was stored at −20 °C for subsequent cytokine/chemokine analysis using a Luminex detection platform. All animal experiments were performed with humane endpoints based on Federation of European Laboratory Animal Science Associations guidelines and according to the regulations of the Ethics Committee for the Care and Use of Laboratory Animals at the Medical University Vienna (proposal number BMBWF 2023–0.122.324). Animals were euthanized upon reaching a tumor volume of >1500 mm^3, a loss in body weight (>20%), tumor ulceration or other indications of deteriorated health. Animals were euthanized via cervical dislocation.
# [3] = test system: immune cell populations in tumor and spleen; experiment: Immune activation and infiltration by flow cytometry; type: in vivo, CT-26-bearing BALB/c mice; settings: 24 h after second dose
# Description: as §1
# The generation and treatment of tumor-bearing mice are outlined in the section “In vivo syngraft experiments” above. Samples were kept on ice during the whole procedure. Tissues were prepared as described previously.[55] In brief, tumor and spleen tissues were collected and mechanically dissociated in DPBS buffer containing Ca^2+/Mg^2+ and FCS (5%). Tumor samples were digested using collagenase VIII (1 mg mL^−1) in a DPBS buffer (without Ca^2+/Mg^2+) supplemented with DNAse I (1 mg mL^−1) for 15 min at 37 °C under constant shaking. Samples were filtered using 70 μm cell strainers in a DPBS buffer (without Ca^2+/Mg^2+) containing FCS (5%), EDTA (5 mM) and DNase I (20 μg mL^−1). Subsequent washing steps were performed in DPBS buffer (without Ca^2+/Mg^2+) containing FCS (5%), EDTA (5 mM) and DNase I (20 μg mL^−1), unless indicated otherwise. Red blood cells were removed by short incubation with ACK buffer. For blocking, samples were incubated with the Ultra-LEAF purified anti-mouse CD16/CD32 antibody (clone: 93; #101330; RRID:AB_2783037; dilution: 1 : 1000) (Biolegend, San Diego, CA, USA) in the BD Horizon Brilliant Stain Buffer (#563794; BD Biosciences) for 10 min. Next, the samples were incubated with an antibody mixture in the BD Horizon Brilliant Stain Buffer for 30 min. Fluorescent dye-labeled antibodies targeting murine CD3 (17A2; #100203; RRID:AB_312661; 1 : 50), CD8a (53-6.7; #100738; RRID:AB_11204079; 1 : 160), CD19 (6D5; #115528; RRID:AB_493735; 1 : 400), CD49b (DX5; #108924; RRID:AB_2565271; 1 : 229), CD11b (M1/70; #101228; RRID:AB_893232; 1 : 80), and CD69 (H1.2F3; # 104512; RRID:AB_493564; 1 : 40) were purchased from BioLegend. The antibody targeting murine CD4 (RM4-5; # 85-0042-U100; 1 : 80) and the viability dye Ghost Dye Red 780 (#13-0865-T100; 1 : 1000) were purchased from Tonbobio (San Diego, CA, USA). The antibody targeting CD45 (30-F11; #363-0451-82; RRID:AB_2925264; 1 : 80) was purchased from Life Tech (Invitrogen). For intracellular staining of granzyme B (GzmB) (QA16A02; #372208; RRID:AB_2687032; 1 : 20) and FoxP3 (MF-14; #320014; RRID:AB_439750; 1 : 100) the True-Nuclear Transcription Factor Buffer Set (Biolegend; #424401) was used according to the manufacturer's recommendations. In brief, samples were incubated with Perm Fix Solution for 60 min at RT. Next, the samples were stained with antibodies targeting GzmB and FoxP3 (diluted in Perm buffer) for 30 min at RT. […] Next day, the samples were analyzed using a Cytek Aurora 5L (Cytek Biosciences, CA, USA) spectral flow cytometer. Data were analyzed using SpectroFlo (v3.2.1) (Cytek Biosciences) and FlowJo (v10.8.1) (FlowJo LLC, Ashland, OR, USA) software.
# [4] = test system: CT-26 tumors; experiment: Anticancer efficacy in vivo, syngeneic colorectal carcinoma; design: species or system BALB/c mice; settings: i.v. twice a week for two weeks, equimolar to 9 mg kg^−1 oxaliplatin
# Description: as §1
# [5] = target: T1, albumin (Bos taurus, UniProt P02769); experiment: Albumin binding in fetal calf serum, SEC-ICP-MS; type: in vitro ADME; settings: 50 μM in FCS
# T1 construct: Serum proteins have a retention span of ∼2–4 min as part of the high-molecular weight fraction with albumin at ∼4 min; tissue Sigma-Aldrich; host or cells: fetal calf serum (whole serum, buffered with 150 mM phosphate buffer pH 7.4)
# T1 sequence (P02769 25-607): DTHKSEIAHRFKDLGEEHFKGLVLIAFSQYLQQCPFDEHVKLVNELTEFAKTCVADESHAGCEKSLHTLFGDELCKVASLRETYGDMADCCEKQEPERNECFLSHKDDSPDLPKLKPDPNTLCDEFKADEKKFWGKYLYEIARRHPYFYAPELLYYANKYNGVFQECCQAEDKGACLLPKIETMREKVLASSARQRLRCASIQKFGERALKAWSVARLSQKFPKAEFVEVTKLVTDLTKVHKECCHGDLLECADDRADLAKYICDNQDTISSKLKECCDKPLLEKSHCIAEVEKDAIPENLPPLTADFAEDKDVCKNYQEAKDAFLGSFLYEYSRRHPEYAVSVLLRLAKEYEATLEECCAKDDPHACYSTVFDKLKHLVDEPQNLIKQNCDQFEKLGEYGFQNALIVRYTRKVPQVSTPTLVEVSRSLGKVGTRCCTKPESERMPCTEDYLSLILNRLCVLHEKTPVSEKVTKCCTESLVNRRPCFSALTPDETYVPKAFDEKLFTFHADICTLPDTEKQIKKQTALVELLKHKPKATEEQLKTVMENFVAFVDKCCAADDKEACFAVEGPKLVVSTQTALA
# Description: FCS was purchased from Sigma-Aldrich and buffered with 150 mM PB pH 7.4 to guarantee a stable pH. The platinum(IV) complexes were dissolved in 150 mM PB (pH 7.4) at a concentration of 5 mM and diluted 1 : 100 in the buffered serum to obtain a final concentration of 50 μM. The samples were then incubated in an autosampler at 37 °C and analyzed for 24 h. Between each sample, a pure water blank was measured. For SEC-ICP-MS measurements an Agilent 1260 Infinity system coupled to an Agilent 7800 ICP-MS equipped with a dynamic reaction cell was used. Oxygen (purity 5.5, Messer Austria GmbH, Gumpoldskirchen, Austria) was used as a reaction gas.
# [6] = Hematological analysis after long-term treatment; settings: 72 h after the fourth dose
# Description: as §2
# [7] = Cytokine and chemokine levels in plasma of treated animals, Luminex; type: in vivo, CT-26-bearing BALB/c mice; settings: 24 h after second dose
# Description: Next, the ProcartaPlex (96-well) multiplex assay panel was performed according to the manufacturer's recommendations. In brief, the capture bead mix was incubated with test samples (undiluted SN or mouse plasma) or standard mix overnight. The SN of three independent experiments or the plasma of four animals per treatment group was loaded onto the multiplex assay plate. Next, biotinylated detection antibody mix and Streptavidin-PE were added to the plate. Following the recommended washing steps, the samples were incubated in a reading buffer and were measured using a Luminex xMAP platform (Bio-Plex MAGPIX Multiplex Reader; Bio-Rad Laboratories) and analyzed using xPONENT software.
# as §1
# [8] = test system: NF-κB pathway (STING-dependent); experiment: NF-κB-inducible SEAP reporter in THP1-Dual reporter cell model; type: cell-based, human
# From the text: (§3) The THP1-Dual™ reporter cell model for simultaneously monitoring the activity of the IRF and NF-κB pathway contains an IRF-inducible luciferase reporter under the control of an ISG54 minimal promoter in conjunction with five interferon (IFN)-stimulated response elements, and an induced SEAP driven by an IFN-β minimal promoter fused to five copies of the NF-κB consensus transcriptional response element and three copies of the c-Rel binding site. The luciferase and SEAP reporter are measurable in the cell culture supernatant using QUANTI-Luc™ 4 Lucia/Gaussia (InvivoGen) and QUANTI-Blue™ (InvivoGen) solution, respectively. Cells were seeded at 1 × 10^5 cells per well in 96-well plates in RPMI-1640 medium, supplemented with 10% FCS, L-glutamine and Pen-Strep. After 2 h of recovery, the compounds were applied at the concentrations indicated in triplicate. The cell culture supernatant (SN) was collected after 24 h of drug incubation and secreted luciferase and SEAP reporter levels were measured according to the manufacturer's recommendations. In brief, for the detection of luciferase, 20 μL of SN were transferred into 96-well white opaque plates, and 30 μL of QUANTI-Luc™ reagent were added per well using an injector module in a multimode microplate reader (Tecan Spark, Zurich, Switzerland). Luminescence was recorded at a reading time of 0.1 second. For the detection of SEAP, 10 μL of SN were transferred to 96-well plates and 90 μL of QUANTI-Blue™ were added per well. Absorbance was measured at 620 nm. Half-maximal effective concentrations (EC50 values) were derived via interpolation from dose–response curves, modeled with the four-parameter logistic (4PL) nonlinear regression model in GraphPad Prism. For comparison, the maximal response rate of the prodrug was depicted in the percent of the maximal response rate achieved by SR-717 or MSA-2 (%EMAX) at the respective concentrations tested. Activatability, tested in co-incubation experiments with AA (50 μM), was expressed as the area under the curve (AUC) ratio of +AA vs. −AA-treated cells. The STING-dependency of the reporter induction was tested by co-administration of the STING inhibitor H-151 (10 μM), added to the cell culture medium 2 h before applying the investigated compounds. In addition to monitoring secreted reporter levels, the cell viability of the reporter cells was determined after 24 h of drug treatment by an MTT-based cell viability assay.
# [9] = test system: IRF pathway (STING-dependent); design: method as in PMID 32820126; settings: read-out: IRF EC50, previous report; cited from earlier work
# [10] = test system: IRF pathway (STING-dependent); experiment: IRF-inducible luciferase reporter in THP1-Dual reporter cell model; type: cell-based, human
# From the text: as §3
# [11] = test system: THP1-Dual, HCT116, HCT116/OxR and CT-26 cells; experiment: MTT-based cell viability assay, 72 h, statements over all investigated cell lines; design: species or system human and murine; settings: none of the investigated cell lines vulnerable, read-out: IC50 of free single agent
# Description: Cell models were seeded (2–2.5 × 10^3 cells per well) in 96-well plates. After 24 h of recovery, the compounds were applied at the concentrations indicated in triplicate. Cell viability was determined after 72 h of continuous drug incubation using an MTT-based cell viability assay (EZ4U, Biomedica, Vienna, Austria) according to the manufacturer's recommendations. Absorbance was measured at 450 nm (vs. 620 nm as reference) using a multimode microplate reader (Tecan Spark, Zurich, Switzerland). Half-maximal inhibitory concentrations (IC50 values) were derived via interpolation from dose–response curves, modeled with the four-parameter logistic (4PL) nonlinear regression model in GraphPad Prism (La Jolla, CA, USA) from at least three independent experiments.
# [12] = two doses, vs Ox-MSA-PEG-Ca or oxaliplatin
# [13] = 24 h, maximal response relative to SR-717
# [14] = 24 h exposure, normalized to cell viability, oxaliplatin in combinations 5 μM
structure (smiles),measurement,setting,value
"COc1cc2cc(C(=O)CCC(=O)[O][Pt-2]34([O]C(=O)NCCOCCOCCOCCOCCN5C(=O)C=CC5=O)([NH2+][C@@H]5CCCC[C@H]5[NH2+]3)[O]C(=O)C(=O)[O]4)sc2cc1OC [Ox-MSA-Mal, (OC-6-34)-[(1R,2R)-1,2-cyclohexanediamino]-oxalato-[4-(5,6-dimethoxybenzo[b]thiophen-2-yl)-4-oxobutylcarboxylato]-[(14-(2,5-dioxo-2,5-dihydro-1H-pyrrol-1-yl)-3,6,9,12-tetraoxatetradecyl)carbamato]platinum(IV)]",liver platinum level relative to tumor,[1]; two doses equimolar to 9 mg kg^−1 oxaliplatin,1.4 fold
same,platinum accumulation in peripheral blood cells,[1]; [12],clearly lowered accumulation
same,platinum levels in serum and tumor,[1]; [12],distinctly elevated platinum levels
same,anemia,[2],not
same,FoxP3+ CD4+ T cell compartment in the spleen,[3],selectively elevated
same,tumor growth,[4],distinctly stronger anticancer efficacy; also recorded: significantly inhibited colorectal tumor growth
same,platinum bound to albumin,"[5]; 150 mM PB pH 7.4, 37 °C, 0 h time point",approximately 99%
same,stability of albumin drug conjugate,"[5]; 37 °C, no release of platinum from the protein",stable over 24 h
same,RBC toxicity,[6],strongly reduced
same,platelet counts (PLT) / thrombocytopenia,[6],not evident
same,absolute counts of white blood cells and subpopulations,[6]; i.v. twice a week for two weeks,induced an increase
same,plasma chemokines CXCL9 and CXCL11,[7],most strongly activated
O=C(Nc1cc(F)c(F)cc1C(=O)[O-])c1ccc(-n2ccnc2)nn1.[Li+] [SR-717],NF-κB EC50 ratio fold SR-717,[8]; 24 h,1.0 fold
same,activation of NF-κB signaling pathway,[8]; 24 h,robustly activated
same,NF-κB %EMAX of SR-717,[8]; [13],100%
same,EC50,[8]; [14],5.8 µM
same,EC50,[9],2100 nM
same,IRF EC50 ratio fold SR-717,[10]; 24 h,1.0 fold
same,activation of IRF signaling pathway,[10]; 24 h,robustly activated
same,IRF %EMAX of SR-717,[10]; [13],100%
same,EC50,[10]; [14],2900 nM
same,impact of reducing conditions on IRF-induced reporter signal (AUC ratio +AA/−AA),[10]; AA 50 μM,no notable modulation
same,IC50,[11],> 75 µM
